Results on five compounds are retold here after publication PMC4158450 (Bioorganic & medicinal chemistry letters, 2014).

In general, Ki refers to a measure of affinity in units of concentration, obtained from inhibition or displacement.

The target in one assay is hA2AAR (Homo sapiens, UniProt P29274). The assay can be described thus: hA2AAR radioligand binding.
The test system of the next assay is rA3AR. The settings on record: in words; cited from earlier work.
For assay [1], the target named is T1, hA3AR (Homo sapiens, UniProt P0DMS8).
T1 sequence (P0DMS8 1-318): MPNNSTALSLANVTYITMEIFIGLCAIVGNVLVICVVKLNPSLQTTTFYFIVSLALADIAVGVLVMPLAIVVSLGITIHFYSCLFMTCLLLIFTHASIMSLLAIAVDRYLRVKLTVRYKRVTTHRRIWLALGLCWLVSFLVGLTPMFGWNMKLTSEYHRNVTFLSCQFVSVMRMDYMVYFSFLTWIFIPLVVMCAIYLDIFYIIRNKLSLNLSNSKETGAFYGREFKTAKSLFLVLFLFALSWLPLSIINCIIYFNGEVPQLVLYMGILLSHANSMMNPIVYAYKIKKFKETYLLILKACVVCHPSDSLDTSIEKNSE
The following applies: 1S,2R diastereoisomer of 2 vs 1R,2S isomer; cited from earlier work.

The test system of assay [2] is chronic neuropathic pain (mechanoallodynia), CCI model. The assay can be described thus: chronic constriction injury. It counts as in vivo, mouse. The following applies: mice, oral administration.
The target of assay [3] is T1, hA3AR. Nature of the assay: hA3AR radioligand binding. The settings on record: in words, vs hA1AR and hA2AAR.

hA2AAR, sequence (P29274 whole entry): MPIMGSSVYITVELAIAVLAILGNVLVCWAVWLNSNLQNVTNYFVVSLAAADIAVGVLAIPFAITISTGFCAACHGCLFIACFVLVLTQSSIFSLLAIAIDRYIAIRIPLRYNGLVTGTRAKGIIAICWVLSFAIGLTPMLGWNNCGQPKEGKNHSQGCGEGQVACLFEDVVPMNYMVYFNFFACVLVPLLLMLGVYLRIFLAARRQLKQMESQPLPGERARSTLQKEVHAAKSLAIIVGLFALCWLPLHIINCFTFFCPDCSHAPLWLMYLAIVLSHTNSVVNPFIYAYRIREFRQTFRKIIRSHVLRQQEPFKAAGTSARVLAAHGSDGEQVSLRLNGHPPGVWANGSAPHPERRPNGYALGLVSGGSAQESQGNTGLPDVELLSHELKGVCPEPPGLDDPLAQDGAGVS

Consider `CNC(=O)[C@@]12C[C@@H]1[C@@H](n1cnc3c(N)nc(C#Cc4ccccc4)nc31)[C@H](O)[C@@H]2O` [Compound 9], for which the Ki at hA2AAR is roughly 1 µM. Turning to `OC[C@H]1O[C@@H](n2cnc3c(NC4CC4c4ccccc4)nc(C#Cc4ccccc4)nc32)[C@H](O)[C@@H]1O` (some centres unmarked) [Compound 1], the “affinity at the rA3AR as compared to the hA3AR” value with rA3AR is reported as “substantially lower affinity”. Turning to `O=[N+]([O-])c1cccc(C2CC2Nc2nc(C#Cc3ccccc3)nc3c2ncn3[C@@H]2O[C@H](CO)[C@@H](O)[C@H]2O)c1` (some centres unmarked) [Compound 2], the “fold more potent in binding to the hA3AR than the corresponding 1R,2S isomer” value at hA3AR [1] is recorded as ~ 10 fold. Consider `CNC(=O)[C@@]12C[C@@H]1[C@@H](n1cnc3c(N[C@@H]4C[C@H]4c4ccc(F)c(F)c4)nc(C#Cc4ccccn4)nc31)[C@H](O)[C@@H]2O` [Compound 18], for which the “time of peak effect post-administration” value in assay [2] was determined as 1 h.

Regarding `CNC(=O)[C@@]12C[C@@H]1[C@@H](n1cnc3c(NC4CC4c4ccc(F)c(F)c4)nc(C#Cc4ccccc4)nc31)[C@H](O)[C@@H]2O` (some centres unmarked) [Compound 15], the “selectivity for the A3AR” value on hA3AR [3] is on record as “very selective”.
